Data reported in ChEMBL document CHEMBL4619759, “A DNA Repair Inhibitor Isolated from an Ecuadorian Fungal Endophyte Exhibits Synthetic Lethality in PTEN-Deficient Glioblastoma” (2020).
Active and inactive are the calls of the source. The calls are words filed in the database; no cut-off is given here.

Tests used:
U-251 [1] = test: Induction of DNA damage in PTEN-deficient human U251 cells assessed as gammaH2AX foci formation at 12.5 ug/ml in presence of 5 Gy IR irradiation measured after 4 to 24 hrs by PI staining based flow cytometric analysis; format: functional, cell-based
U-251 [2] = test: Selective cytotoxicity against PTEN-deficient human U251 cells at 12.5 ug/ml after 48 hrs by CellTiter-Glo luminescent cell viability assay; format: functional, cell-based
U-251 [3] = test: Induction of DNA damage in PTEN-deficient human U251 cells assessed as gammaH2AX accumulation at 6.25 to 12.5 ug/ml after 4 to 24 hrs by PI staining based flow cytometric analysis; format: functional, cell-based
U-251 [4] = test: Inhibition of DSB repair in PTEN-deficient 5 Gy IR-induced human U251 cells assessed as increase in comet tail moment at 12.5 ug/ml pretreated followed by irradiation with 5 Gy IR by neutral comet assay; format: functional, cell-based
U-251 [5] = test: Induction of DNA damage in PTEN-deficient human U251 cells assessed as accumulation of gammaH2AX positive cells at S phase at 6.25 to 12.5 ug/ml measured after 4 to 24 hrs by PI staining based flow cytometric analysis; format: functional, cell-based
U-251 [6] = test: Induction of DNA damage in PTEN-deficient human U251 cells assessed as accumulation of gammaH2AX positive cells at G1 phase at 12.5 ug/ml in presence of 5 Gy IR irradiation measured after 4 to 24 hrs by PI staining based flow cytometric analysis; format: functional, cell-based
U-251 [7] = test: Induction of cell cycle arrest in PTEN-deficient human U251 cells assessed as accumulation at G1 phase at 6.25 to 12.5 ug/ml after 4 to 24 hrs by PI staining based flow cytometric analysis; format: functional
U-251 [8] = test: Induction of DNA damage in PTEN-proficient human U251 cells assessed as accumulation of gammaH2AX positive cells at S phase at 6.25 to 12.5 ug/ml measured after 4 to 24 hrs by PI staining based flow cytometric analysis; format: functional, cell-based
U-251 [9] = test: Inhibition of DSB repair in PTEN-deficient human U251 cells at 12.5 ug/ml by neutral comet assay; format: functional, cell-based
U-251 [10] = test: Induction of DNA damage in PTEN-proficient human U251 cells assessed as accumulation of gammaH2AX positive cells at G2/M phase at 6.25 to 12.5 ug/ml measured after 4 to 24 hrs by PI staining based flow cytometric analysis; format: functional, cell-based
U-251 [11] = test: Induction of cell cycle arrest in PTEN-deficient human U251 cells assessed as accumulation at G2/M phase at 6.25 to 12.5 ug/ml incubated for 4 hrs followed by irradiation with 5 Gy IR by PI staining based flow cytometric analysis; format: functional
U-251 [12] = test: Induction of cell cycle arrest in PTEN-proficient human U251 cells assessed as accumulation at G2/M phase at 6.25 to 12.5 ug/ml incubated for 4 hrs followed by irradiation with 5 Gy IR by PI staining based flow cytometric analysis; format: functional
[13] = Inhibition of DSB repair in PTEN-deficient human U2OS EJ-DR cells assessed as reduction in mutagenic non-homologous end joining activity at 12.5 ug/ml incubated for 24 hrs in presence of DSB inducer by flow cytometric analysis relative to control; format: functional
[14] = Inhibition of DSB repair in PTEN-deficient human U2OS EJ-DR cells assessed as reduction in homologous recombination activity at 12.5 ug/ml incubated for 24 hrs in presence of DSB inducer by flow cytometric analysis relative to control; format: functional
U-251 [15] = test: Radiosensitizer activity in PTEN-deficient human U251 cells assessed as reduction in cell survival at 6.25 to 12.5 ug/ml in presence of 5 Gy IR irradiation by CellTiter-Glo cell viability assay; format: functional, cell-based
U-251 [16] = test: Induction of DNA damage in PTEN-deficient human U251 cells assessed as accumulation of gammaH2AX positive cells at G2/M phase at 6.25 to 12.5 ug/ml measured after 4 to 24 hrs by PI staining based flow cytometric analysis; format: functional, cell-based
U-251 [17] = test: Induction of DNA damage in PTEN-proficient human U251 cells assessed as accumulation of gammaH2AX positive cells at G1 phase at 6.25 to 12.5 ug/ml measured after 4 to 24 hrs by PI staining based flow cytometric analysis; format: functional, cell-based
U-251 [18] = test: Induction of DNA damage in PTEN-deficient human U251 cells assessed as accumulation of gammaH2AX positive cells at G1 phase at 6.25 to 12.5 ug/ml measured after 4 to 24 hrs by PI staining based flow cytometric analysis; format: functional, cell-based

SMILES: O=C1Nc2ccccc2-c2ccnc3ccc(O)c1c23
- Activity (U-251 [1]): Active
- Activity (U-251 [2]): Active
- Activity (U-251 [3]): Active
- inhibition (U-251 [4]): Active
- Activity (U-251 [5]): inactive
- Activity (U-251 [6]): Active
- Activity (U-251 [7]): Active
- Activity (U-251 [8]): inactive
- inhibition (U-251 [9]): Active
- Activity (U-251 [10]): inactive
- Activity (U-251 [11]): Active
- Activity (U-251 [12]): Active
- inhibition at 12.5 µg/mL [13]: 48%
- inhibition at 12.5 µg/mL [14]: 46%
- Activity (U-251 [15]): Active
- Activity (U-251 [16]): inactive
- Activity (U-251 [17]): inactive
- Activity (U-251 [18]): inactive
